Among the data in PubChem BioAssay (NCI) are TGI values, retold here.

Test systems include 786-0 renal; BT-549 breast; CAKI-1 renal; CCRF-CEM leukemia; DU-145 prostate; HCC-2998 colon; HS 578T breast; MCF7 breast; MDA-MB-231 breast; MDA-MB-435; MDA-N; NCI-H522 lung; NCI/ADR-RES ovarian; OVCAR-4 ovarian; PC-3 prostate; RPMI-8226 leukemia; T-47D breast; SNB-75 CNS; SR leukemia; DMS 273 small cell lung.
What all share (assay): NCI tumour cell line growth inhibition, 48 h

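Five concentrations, 48 hours, 96-well plates. Definition used: TGI = concentration required for complete inhibition of growth.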

`Nc1c2c(=O)[nH]c(=O)c2c(N)c2c(=O)c3ccccc3c(=O)c12`: the TGI with 786-0 renal was 10.9 µM; in the test on BT-549 breast it was 3.71 µM; in the test with CAKI-1 renal, 22.9 µM; in the test on CCRF-CEM leukemia, more than 26.7 µM; with DU-145 prostate, 3.95 µM; in the test on HCC-2998 colon, more than 63.3 µM. The TGI with HS 578T breast is more than 25.9 µM; in the test with MCF7 breast, 2.72 µM; in the test with MDA-MB-231 breast, more than 29.5 µM; in the test on MDA-MB-435, 2.46 µM; in the test with MDA-N, 0.448 µM; with NCI-H522 lung, 13.5 µM. Also, the TGI in the test with NCI/ADR-RES ovarian is 5.9 µM; in the test with OVCAR-4 ovarian, 3.39 µM; in the test with PC-3 prostate, more than 36.6 µM; in the test with RPMI-8226 leukemia, 8.53 µM; in the test with T-47D breast, more than 49.6 µM.
As to `O=C(CNc1cccc([N+](=O)[O-])c1)Nn1c(-c2ccccc2)nc2ccccc2c1=O`, the TGI in the test on BT-549 breast is more than 100 µM; in the test on CCRF-CEM leukemia, 1.15 µM; with DU-145 prostate, 5.47 µM; with HCC-2998 colon, 2.81 µM; in the test with HS 578T breast it was 3.6 µM; in the test with MCF7 breast it was 1.71 µM. Besides, the TGI in the test on MDA-MB-231 breast came to 2.9 µM; in the test on NCI/ADR-RES ovarian, 1.89 µM; in the test with PC-3 prostate, 1.85 µM; in the test on RPMI-8226 leukemia, 3.36 µM; with T-47D breast, 4.54 µM.
`C=CC[N+]12CN3CN(CN(C3)C1)C2`: the TGI in the test with BT-549 breast is 61.3 µM; in the test on CAKI-1 renal it was 37.1 µM; in the test with CCRF-CEM leukemia it was 30.3 µM; with DU-145 prostate it was 46.9 µM; in the test with HCC-2998 colon, 55.8 µM; in the test with HS 578T breast it was more than 100 µM. In addition, the TGI with MCF7 breast was more than 100 µM; in the test on MDA-MB-231 breast, 91.3 µM; with MDA-MB-435, 37.4 µM; with MDA-N, 35.5 µM; with NCI-H522 lung it was 34.9 µM; in the test on NCI/ADR-RES ovarian, 62.7 µM. The TGI with OVCAR-4 ovarian is 52.9 µM; in the test with PC-3 prostate, more than 100 µM; with RPMI-8226 leukemia, 39 µM; in the test on SNB-75 CNS it was 48.1 µM; in the test on T-47D breast, 76.5 µM.
Turning to `CC(C)=CCNc1ncnc2nc[nH]c12`, the TGI with 786-0 renal, in the test on BT-549 breast, with CAKI-1 renal, with CCRF-CEM leukemia, in the test with DU-145 prostate and in the test on HS 578T breast was more than 100 µM each time. Further, the TGI with MCF7 breast, with MDA-MB-231 breast, with MDA-MB-435, with MDA-N, in the test with NCI-H522 lung and in the test on NCI/ADR-RES ovarian was more than 100 µM in each case. In addition, the TGI in the test on OVCAR-4 ovarian, in the test with PC-3 prostate, in the test on RPMI-8226 leukemia, in the test on SNB-75 CNS, in the test on SR leukemia and with T-47D breast was more than 100 µM each time.
For `N#CN=C(N)NC(=O)/C=C/C=C/c1ccc(Cl)cc1`, the TGI with 786-0 renal, in the test with CAKI-1 renal, with CCRF-CEM leukemia, with DMS 273 small cell lung, in the test on NCI-H522 lung and in the test on OVCAR-4 ovarian was more than 100 µM each time. The TGI with RPMI-8226 leukemia was more than 100 µM; in the test with SNB-75 CNS, 54.8 µM; in the test on SR leukemia it was more than 100 µM.
Consider `COC(=O)Nc1nc2cc(OC)c(OC)cc2c(=O)[nH]1`, for which the TGI with 786-0 renal, with BT-549 breast, in the test with CAKI-1 renal, with CCRF-CEM leukemia, in the test with DU-145 prostate and with HCC-2998 colon was more than 100 µM each time. Moreover, the TGI is more than 100 µM in the test on HS 578T breast; more than 100 µM with MCF7 breast; more than 100 µM with MDA-MB-231 breast; 7.99 µM in the test on MDA-N; 6.51 µM with NCI-H522 lung; more than 100 µM with NCI/ADR-RES ovarian. Besides, the TGI was more than 100 µM in the test on OVCAR-4 ovarian; 71 µM with PC-3 prostate; 43.6 µM in the test on SNB-75 CNS; more than 100 µM with SR leukemia; more than 100 µM with T-47D breast.
Turning to `O=C1c2ccccc2C(=O)c2c(Nc3ccc4c5c(cccc35)C(=O)c3ccccc3-4)cccc21`, the TGI in the test on 786-0 renal, in the test with BT-549 breast, with CAKI-1 renal, in the test on DU-145 prostate, with HCC-2998 colon and in the test on HS 578T breast was more than 100 µM each time. The TGI with MDA-MB-231 breast, in the test on MDA-MB-435, with MDA-N, in the test on NCI-H522 lung, with NCI/ADR-RES ovarian and in the test with OVCAR-4 ovarian was more than 100 µM in each case. Moreover, the TGI in the test with PC-3 prostate, in the test on SNB-75 CNS, in the test on SR leukemia and with T-47D breast was more than 100 µM in each case.
For the molecule `CC(=O)OC(C)C1C2=C(C(=O)CC1(C)O)C(=O)c1c(ccc(-c3ccc4c(c3O)C(=O)C3=C(C4=O)C(C(C)OC(C)=O)C(C)(O)CC3=O)c1O)C2=O` (stereo unspecified), the TGI was 3.44 µM with 786-0 renal; 2.83 µM in the test on BT-549 breast; 6.06 µM with CAKI-1 renal; more than 100 µM in the test with CCRF-CEM leukemia; 3.05 µM with DMS 273 small cell lung; 18.3 µM in the test with DU-145 prostate. In addition, the TGI in the test on HCC-2998 colon worked out at 25.9 µM; in the test with HS 578T breast, 5 µM; in the test on MCF7 breast, 4.06 µM; with MDA-MB-231 breast, 4.98 µM; in the test with MDA-MB-435 it was 4.19 µM; in the test with MDA-N, 7.34 µM. Further, the TGI was 4.25 µM in the test with NCI-H522 lung; 45.1 µM in the test with NCI/ADR-RES ovarian; 5.26 µM with OVCAR-4 ovarian; 8.74 µM with PC-3 prostate; more than 100 µM in the test with RPMI-8226 leukemia; 5.92 µM with SNB-75 CNS. Also, the values for the TGI with SR leukemia and with T-47D breast were 26.5 µM and 4.61 µM, respectively.
As to `CC(C)(C)N1C(C(=O)c2ccccc2)C1c1ccccc1` (stereo unspecified), the TGI with CCRF-CEM leukemia, in the test with DMS 273 small cell lung, in the test with HCC-2998 colon, in the test on NCI-H522 lung, in the test with OVCAR-4 ovarian and in the test with RPMI-8226 leukemia was more than 100 µM throughout. The TGI with SNB-75 CNS was more than 100 µM.
For `O=C(CSc1nc2ccccc2s1)c1sc2sc3ccccc3[n+]2c1[O-]`, the TGI in the test on 786-0 renal, in the test on BT-549 breast, in the test on CAKI-1 renal, with DU-145 prostate, in the test with HS 578T breast and in the test with MCF7 breast was more than 100 µM in each case. Moreover, the TGI with MDA-MB-231 breast, in the test with MDA-MB-435, in the test with MDA-N, with NCI-H522 lung, in the test with NCI/ADR-RES ovarian and with OVCAR-4 ovarian was more than 100 µM in each case. The TGI in the test on PC-3 prostate, in the test with RPMI-8226 leukemia, with SR leukemia and with T-47D breast was more than 100 µM in each case.
As to `C#CCOc1c(C(=O)OCC)c(=O)n(C)c2ccccc12`, the TGI in the test on CAKI-1 renal, with CCRF-CEM leukemia, in the test with NCI-H522 lung, in the test with RPMI-8226 leukemia and in the test with SNB-75 CNS was more than 100 µM throughout.
Turning to `CCOC(=O)C12CCC(=O)C=C1[C@@H](C)C(=O)CC2` (stereo partly specified), the TGI in the test on DMS 273 small cell lung, with HCC-2998 colon, in the test on RPMI-8226 leukemia, in the test on SNB-75 CNS and in the test on SR leukemia was more than 100 µM in each case.
Take `N#CCCCC[N+]12CN3CN(CN(C3)C1)C2`: the TGI in the test with 786-0 renal, in the test on BT-549 breast, in the test with CAKI-1 renal, in the test on CCRF-CEM leukemia, with DU-145 prostate and with HCC-2998 colon was more than 100 µM each time. Further, the TGI in the test on HS 578T breast, with MCF7 breast, in the test on MDA-MB-231 breast, in the test on MDA-MB-435, in the test on MDA-N and in the test on NCI-H522 lung was more than 100 µM each time. Also, the TGI in the test on NCI/ADR-RES ovarian, in the test with OVCAR-4 ovarian, in the test on PC-3 prostate, with RPMI-8226 leukemia, in the test with SNB-75 CNS and in the test with SR leukemia was more than 100 µM in each case. Moreover, the TGI with T-47D breast was more than 100 µM.
As for `Nc1nc(N)c2c(n1)NC(=O)c1c(c3ccccc3n1Cc1ccc(Cl)cc1)C2`, the TGI in the test with BT-549 breast is 49.2 µM; with CAKI-1 renal, 34.5 µM; in the test with CCRF-CEM leukemia, 42.8 µM; with DU-145 prostate, 29.3 µM; in the test with HCC-2998 colon it was 34.4 µM; in the test with HS 578T breast, more than 100 µM. Besides, the TGI in the test on MCF7 breast is 88.5 µM; in the test with MDA-MB-435, 91.1 µM; with MDA-N, 34.5 µM; in the test with NCI/ADR-RES ovarian it was 85.6 µM; in the test with OVCAR-4 ovarian, 49.9 µM; in the test on PC-3 prostate, more than 100 µM. Besides, the values for the TGI in the test with SNB-75 CNS and with T-47D breast were 69.2 µM and 43.9 µM, respectively.
